Assay results: patent publication US5387600A, “Treating arteriosclerosis using benzimidazole compositions” (priority 1992, dated 1995)
Like-named read-outs stand apart in the source and are kept apart here.

Tests used:
[1] = tested on: mouse abdominal cavity macrophage; experiment: In vitro test for suppressing effect of macrophage-foaming reaction; format: cell-based; settings: compared with control; for activity at 5 µM: Mus musculus, Macrophage, 16 h
Description: (1) In vitro test for suppressing effect of macrophage-foaming reaction using mouse abdominal cavity macrophage
A 15-week old ICR female mouse (Japan SLC) was amputated at its neck and exsanguinated. Then, Hanks buffer (Nissui Pharmaceutical Co., Ltd.) was injected intraperitoneally. After massaging the abdominal part, the buffer was recovered rapidly and centrifuged at 1,000 rpm for 5 minutes to collect the abdominal cavity macrophage. Then, the collected abdominal cavity macrophage was suspended in GIT medium (Wako Pure Chemical Industry) and inoculated on a 24-well microplate. After culturing the macrophage for 2 hours at 37° C. in 5% CO2, the medium was changed into Dulbecco modified Eagle's MEM medium (Nissui Pharmaceutical Co., Ltd.). After further culturing the macrophage for 16 hours at 37° C. in 5% CO2, the following substances were added in order:
1 Test compounds: solutions in DMSO (Wako Pure Chemical Industry) 1 ml of the solutions were prepared, optionally diluted and the diluted solutions were added to individual wells (500 μl) in the amount of 5μl.
PC: phosphatidylcholine (Funakoshi)
PS: phosphatidylserine (Funakoshi)
DCP: dicetylphosphate (Funakoshi)
CHOL.: cholesterol (Sigma)
3 ^3 H-Oleic acid (Amersham Japan)
Then, after still further culturing the macrophage for 16 hours at 37° C. in 5% CO2, the lipid fraction was extracted with chloroform and methanol. The extracted lipid fraction was subjected to TLC (hexane:ether:acetic acid=70:30:1), the separated bands of CE (cholesterylester) and TG (triglyceride) were borne off from the TLC plate and then the radioactivities thereof were measured using a liquid scintillation counter (PACKARD BH-22). Yields of cholesteryl ester were calculated by comparing with a control.

rabbit fed normal feed = experiment: Blood lipid lowering effect in rabbit fed normal feed; format: in vivo; settings: New Zealand White female rabbits, 100 mg/kg/day in feed for 7 successive days
Description: (3) Blood lipid lowering effect in rabbit fed normal feed (i) New Zealand White female rabbits having body weight of about 2 kg were fed normal feed (100 g/day/rabbit: ORC-4 manufactured by Oriental Yeast) for 7 days.
(§1) Subsequently, one group consisting of 3 rabbits (treatment group) was fed the normal feed in the same amount, except that the feed further contained test compound (8) in the amount of 100 mg/kg/day/rabbit, for 7 successive days. As a control, another group consisting of 3 rabbits was fed the normal feed in the same amount without any test compound.
A Small amount of blood was drawn from the parotic vein of every rabbit once a week and was measured for amount of blood total cholesterol using IATROLIPO TC manufactured by Iatron Laboratories Inc.
Thus, it is clear that test compound (8) has an excellent blood cholesterol lowering effect not only on rabbits fed high-cholesterol feed but also on rabbits fed normal feed. (ii) New Zealand White female rabbits having body weight of about 2 kg were fed normal feed (100 g/day/rabbit: ORC-4 manufactured by Oriental Yeast) for 7 days. […]
(§2) A small amount of blood was drawn from the parotic vein of every rabbit once a week and was measured for amount of blood total cholesterol using IATROLIPO TC manufactured by Iatron Laboratories Inc.

Acute toxicity test = settings: mouse, in vivo; oral, suspension in 0.5% Tween 80, 8-week old ddy mice
Description: Compounds (8) and (53) each was suspended in 0.5% Tween 80 solution. Six 8-week old ddy mice were orally administered the suspensions respectively and were observed on acute toxicity.

[2] = tested on: rabbit fed high-cholesterol feed; experiment: Blood lipid lowering effect in rabbit fed high-cholesterol feed; format: in vivo; settings: New Zealand White female rabbits, 100 mg/kg/day in feed for 7 successive days
Description: (2) Blood lipid lowering effect in rabbit fed high-cholesterol feed (i) New Zealand White female rabbits having body weight of about 2 kg were fed feed having high cholesterol content (100 g/day/rabbit: ORC-4 manufactured by Oriental Yeast, containing 0.5% of cholesterol and 0.5% of olive oil) for 7 days to produce hypercholesterolemia.
as §1, with “same” for “normal”, “On the other hand, as” for “As”
as §2
Thus, it is clear that test compound (8) has an excellent lowering effect of the blood cholesterol. (ii) New Zealand White female rabbits having body weight of about 2 kg were fed feed having high cholesterol content (100 g/day/rabbit: ORC-4 manufactured by Oriental Yeast, containing 0.5% of cholesterol and 0.5% of olive oil) for 7 days to produce hypercholesterolemia. […]

[3] = tested on: rabbit fed feed having high cholesterol content; experiment: Arteriosclerosis focus formation-regressing effect in rabbit fed feed having high cholesterol content; format: in vivo; settings: 100 mg/kg/day in feed for 20 successive days
Description: (4) Arteriosclerosis focus formation-regressing effect in rabbit fed feed having high cholesterol content
New Zealand White female rabbits having body weight of about 2 kg were fed feed having high cholesterol content (100 g/day/rabbit: ORC-4 manufactured by Oriental Yeast, containing 0.5% of cholesterol and 0.5% of olive oil) for 7 days to produce hypercholesterolemia.
as §1, with “same” for “normal”, “(53)” for “(8)”, “20” for “7”, “On the other hand, as” for “As”
After 20 weeks from the administration of the test compound, the aortas and arch part thereof were removed from each rabbit and the blood vessels were opened. Comparing the treatment group with the control group, it was observed that the arteriosclerosis focus formation was suppressed effectively in the treatment group.

[4] = cholesteryl ester from 3H-oleic acid, read-out: Yield of CE (%)
[5] = triglyceride from 3H-oleic acid, read-out: Yield of TG (%)

## CCCCCCCCCCCC(=O)Nc1ccc2[nH]c(SC)nc2c1 [(28)]
[1]; [4]
  activity at 5 µM: 53%
[1]; [5]
  activity at 5 µM: 164%

## CCCCCCCCCC(=O)Nc1ccc2[nH]c(S)nc2c1 [(10)]
[1]; [4]
  activity at 5 µM: 69%
[1]; [5]
  activity at 5 µM: 129%

## CCCC(c1cc(C(C)(C)C)cc(C(C)(C)C)c1O)c1cc(C(C)(C)C)cc(C(C)(C)C)c1O [(56)]
[1]; [4]
  activity at 5 µM: 51%
[1]; [5]
  activity at 5 µM: 102%

## COC(=O)CCCC(C)(C)c1cc(C)cc(Cc2cc(C)cc(C(C)(C)CCCC(=O)OC)c2O)c1O [(67)]
[1]; [4]
  activity at 5 µM: 42%
[1]; [5]
  activity at 5 µM: 92%

## CCC(C)(C)c1cc(C(C)c2cc(C(C)(C)CC)cc(C(C)(C)CC)c2O)c(O)c(C(C)(C)CC)c1 [(63), 2,2'-ethylidenebis(4,6-di-tert-pentylphenol)]
[1]; [4]
  activity at 5 µM: 42%
[1]; [5]
  activity at 5 µM: 96%

## CCCCCCCCCCCC(=O)Nc1ccc2nc(S)[nH]c2c1 [(8), 5-dodecanoylamino-2-mercaptobenzimidazole]
Rabbit fed normal feed
  fall of amount of blood total cholesterol in comparison with the control group: 20%
Acute toxicity test
  LD50: ≥ 1000 mg/kg
[1]; [4]
  activity at 5 µM: 42%
[1]; [5]
  activity at 5 µM: 106%
[2]
  fall of amount of blood total cholesterol in comparison with the control group: 25%

## O=[N+]([O-])c1ccc2nc(CCCCCCCCc3nc4ccc([N+](=O)[O-])cc4[nH]3)[nH]c2c1 [(6), 1,8-bis(5-nitrobenzimidazol-2-yl) octane]
[1]; [4]
  activity at 5 µM: 8%
[1]; [5]
  activity at 5 µM: 61%

## CCOC(=O)Oc1c(C)cc(C)cc1C(c1cc(C)cc(C)c1O)C(C)C (stereo not drawn) [(73)]
[1]; [4]
  activity at 5 µM: 48%
[1]; [5]
  activity at 5 µM: 90%

## O=C(CSc1nc2ccccc2[nH]1)c1ccccc1O [(43)]
[1]; [4]
  activity at 5 µM: 45%
[1]; [5]
  activity at 5 µM: 98%

## CCCCCCCCCCCCNC(=O)c1ccc2[nH]c(S)nc2c1 [(30)]
[1]; [4]
  activity at 5 µM: 51%
[1]; [5]
  activity at 5 µM: 91%

## Cc1cc(Cc2cc(C)cc(C(C)(C)C)c2O)c(O)c(C(C)(C)C)c1 [(52)]
[1]; [4]
  activity at 5 µM: 38%
[1]; [5]
  activity at 5 µM: 101%

## CCCCCCCCCCCCOC(=O)c1ccc2[nH]c(S)nc2c1 [(34)]
[1]; [4]
  activity at 5 µM: 50%
[1]; [5]
  activity at 5 µM: 108%

## CCCCCCCCCCCCCCCCSc1nc2ccccc2[nH]1 [(20)]
[1]; [4]
  activity at 5 µM: 49%
[1]; [5]
  activity at 5 µM: 62%

## CCCCCCCCOc1ccc2[nH]c(S)nc2c1 [(27)]
[1]; [4]
  activity at 5 µM: 51%
[1]; [5]
  activity at 5 µM: 78%

## CCCCCCCCCCCCNS(=O)(=O)c1ccc2[nH]c(S)nc2c1 [(12)]
[1]; [4]
  activity at 5 µM: 52%
[1]; [5]
  activity at 5 µM: 102%

## CCCCCCCC(c1cc(C)cc(C2(C)CCCCC2)c1O)c1cc(C)cc(C2(C)CCCCC2)c1O [(61)]
[1]; [4]
  activity at 5 µM: 52%
[1]; [5]
  activity at 5 µM: 103%

## CCC(C)c1cc(C(C)CC)c(O)c(C(c2cc(C(C)CC)cc(C(C)CC)c2O)C(C)C)c1 (stereo not drawn) [(65)]
[1]; [4]
  activity at 5 µM: 38%
[1]; [5]
  activity at 5 µM: 101%

## CC(CC(=O)Nc1ccc2[nH]c(S)nc2c1)CC(C)(C)C (stereo not drawn) [(23)]
[1]; [4]
  activity at 5 µM: 56%
[1]; [5]
  activity at 5 µM: 119%

## CN1C(=O)C(Cl)C(Sc2nc3ccccc3[nH]2)N(C)C1=O (stereo not drawn) [(42)]
[1]; 5 μM, cholesteryl ester from 3H-oleic acid, 960 min
  Yield of CE (%): 61%
[1]; 5 μM, triglyceride from 3H-oleic acid, 960 min
  Yield of TG (%): 96%

## Cc1cc(C)c(O)c(C(C)(C)c2cc(C)cc(C)c2O)c1 [(62)]
[1]; [4]
  activity at 5 µM: 61%
[1]; [5]
  activity at 5 µM: 98%

## Cc1cc(C(c2ccccc2)c2cc(C)cc(C(C)(C)C)c2O)c(O)c(C(C)(C)C)c1 [(60)]
[1]; [4]
  activity at 5 µM: 48%
[1]; [5]
  activity at 5 µM: 96%

## Cc1cc(C)c(O)c(C(CC(C)CC(C)(C)C)c2cc(C)cc(C)c2O)c1 (stereo not drawn) [(54)]
[1]; [4]
  activity at 5 µM: 25%
[1]; [5]
  activity at 5 µM: 95%

## Cc1cc(C(CCc2ccccc2)c2cc(C)cc(C(C)(C)C)c2O)c(O)c(C(C)(C)C)c1 [(74)]
[1]; [4]
  activity at 5 µM: 65%
[1]; [5]
  activity at 5 µM: 108%

## Cc1cc(C)c(O)c(Cc2cc(C(C)(C)C)cc(C(C)(C)C)c2O)c1 [(66)]
[1]; [4]
  activity at 5 µM: 54%
[1]; [5]
  activity at 5 µM: 108%

## CCCCCCCCS(=O)(=O)Nc1ccc2[nH]c(S)nc2c1 [(21)]
[1]; [4]
  activity at 5 µM: 64%
[1]; [5]
  activity at 5 µM: 93%

## c1ccc(CSc2nc3ccccc3[nH]2)cc1 [(7), 2-benzylthiobenzimidazole]
[1]; [4]
  activity at 5 µM: 61%
[1]; [5]
  activity at 5 µM: 91%

## Cc1cc(C)c(O)c(C(c2cc(C)cc(C)c2O)C(C)C)c1 [(53), 2,2'-isobutylidenebis(4,6-dimethyphenol)]
Rabbit fed normal feed
  fall of amount of blood total cholesterol in comparison with the control group: 20%
Acute toxicity test
  LD50: ≥ 1000 mg/kg
[1]; [4]
  activity at 5 µM: 56%
[1]; [5]
  activity at 5 µM: 92%
[2]
  fall of amount of blood total cholesterol in comparison with the control group: 40%
[3]; after 20 weeks
  cholesterol deposition to the eye ball: suppressing
  fatty liver formation: suppressing
[3]; aortas examined after 20 weeks
  arteriosclerosis focus formation: suppresses

## Cc1nc2ccc([N+](=O)[O-])cc2[nH]1 [(5), 2-metyl-5-nitrobenzimidazole]
[1]; [4]
  activity at 5 µM: 67%
[1]; [5]
  activity at 5 µM: 89%

## CC(=O)Oc1c(Cc2cc(C)cc(C(C)(C)C)c2O)cc(C)cc1C(C)(C)C [(58)]
[1]; [4]
  activity at 5 µM: 45%
[1]; [5]
  activity at 5 µM: 98%

## CCCCCCCCCCCC(=O)Nc1ccc2[nH]cnc2c1 [(47)]
[1]; [4]
  activity at 5 µM: 55%
[1]; [5]
  activity at 5 µM: 98%
